Among the data in US20200002283A1, “PYRAZOLE DERIVATIVES HAVING ACTIVITY AGAINST PAIN” (priority 2016, published 2020) are Ki values, retold here.

In assay [1] the target is T1, human μ-opioid receptor (Homo sapiens, UniProt P35372).
T1 construct: expressed in transfected cells; host or cells: CHO-K1
The assay can be described thus: Human μ-opioid receptor radioligand assay ([3H]-DAMGO). The class given is binding. The method, then: Human μ-Opioid Receptor Radioligand Assay
To investigate binding properties of test compounds to human μ-opioid receptor, transfected CHO-K1 cell membranes and [^3H]-DAMGO (Perkin Elmer, ES-542-C), as the radioligand, were used. The assay was carried out with 20 μg of membrane suspension, 1 nM of [^3H]-DAMGO in either absence or presence of either buffer or 10 μM Naloxone for total and non-specific binding, respectively. Binding buffer contained Tris-HCl 50 mM, MgCl2 5 mM at pH 7.4. Plates were incubated at 27° C. for 60 minutes. After the incubation period, the reaction mix was then transferred to MultiScreen HTS, FC plates (Millipore), filtered and plates were washed 3 times with ice-cold 10 mM Tris-HCL (pH 7.4). Filters were dried and counted at approximately 40% efficiency in a MicroBeta scintillation counter (Perkin-Elmer) using EcoScint liquid scintillation cocktail.

Assay [2] has as its target Human α2δ-1 subunit of Cav2.2 calcium channel (Homo sapiens, UniProt P54289). The assay can be described thus: Human α2δ-1 subunit of Cav2.2 calcium channel assay ([3H]-Gabapentin binding). The protocol: Human α2δ-1 Subunit of Cav2.2 Calcium Channel Assay
Human α2δ-1 enriched membranes (2.5 μg) were incubated with 15 nM of radiolabeled [3H]-Gabapentin in assay buffer containing Hepes-KOH 10 mM, pH 7.4. NSB (non specific binding) was measured by adding 10 μM pregabalin. After 60 min incubation at 27° C., binding reaction was terminated by filtering through Multiscreen GF/C (Millipore) presoaked in 0.5% polyethyleneimine in Vacuum Manifold Station, followed by 3 washes with ice-cold filtration buffer containing 50 mM Tris-HCl, pH 7.4. Filter plates were dried at 60° C. for 1 hour and 30 μl of scintillation cocktail were added to each well before radioactivity reading. Readings were performed in a Trilux 1450 Microbeta radioactive counter (Perkin Elmer).

The mark [3] stands for this setting: transfected CHO-K1 cell membranes, 1 nM [3H]-DAMGO, read-out: μ binding.
[4] abbreviates: human α2δ-1 enriched membranes, 15 nM [3H]-Gabapentin, read-out: α2δ-1 binding.

Like-named read-outs stand apart in the source and are kept apart here. Bounds are passed on as bounds.

Chain of Human α2δ-1 subunit of Cav2.2 calcium channel (P54289 25-1103): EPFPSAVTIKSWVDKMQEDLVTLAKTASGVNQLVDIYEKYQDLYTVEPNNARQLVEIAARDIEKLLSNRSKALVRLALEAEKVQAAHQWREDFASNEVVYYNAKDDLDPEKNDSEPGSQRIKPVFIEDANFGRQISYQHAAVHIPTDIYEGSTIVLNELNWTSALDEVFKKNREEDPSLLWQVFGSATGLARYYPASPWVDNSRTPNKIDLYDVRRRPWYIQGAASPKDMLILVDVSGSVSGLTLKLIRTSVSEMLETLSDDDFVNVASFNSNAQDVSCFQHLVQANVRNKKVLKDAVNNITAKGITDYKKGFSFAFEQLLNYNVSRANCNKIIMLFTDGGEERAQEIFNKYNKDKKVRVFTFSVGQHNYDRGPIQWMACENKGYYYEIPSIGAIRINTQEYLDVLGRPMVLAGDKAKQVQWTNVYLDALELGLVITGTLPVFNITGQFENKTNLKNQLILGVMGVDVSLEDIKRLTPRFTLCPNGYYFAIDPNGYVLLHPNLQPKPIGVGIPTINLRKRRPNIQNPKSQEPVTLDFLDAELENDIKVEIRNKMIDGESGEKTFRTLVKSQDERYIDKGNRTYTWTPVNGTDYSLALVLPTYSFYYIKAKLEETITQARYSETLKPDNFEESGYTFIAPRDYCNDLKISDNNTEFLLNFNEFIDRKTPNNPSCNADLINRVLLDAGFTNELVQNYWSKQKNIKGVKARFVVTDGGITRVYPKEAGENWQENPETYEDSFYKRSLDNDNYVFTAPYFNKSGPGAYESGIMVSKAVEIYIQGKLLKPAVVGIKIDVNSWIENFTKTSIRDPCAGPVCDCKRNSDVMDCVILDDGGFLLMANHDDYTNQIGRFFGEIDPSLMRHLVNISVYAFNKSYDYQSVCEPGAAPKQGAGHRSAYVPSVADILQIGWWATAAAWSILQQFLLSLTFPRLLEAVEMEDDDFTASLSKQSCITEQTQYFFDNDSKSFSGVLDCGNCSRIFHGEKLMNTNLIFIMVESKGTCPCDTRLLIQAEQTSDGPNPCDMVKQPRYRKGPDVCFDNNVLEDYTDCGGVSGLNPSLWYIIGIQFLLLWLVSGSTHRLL
T1 sequence (P35372 whole entry): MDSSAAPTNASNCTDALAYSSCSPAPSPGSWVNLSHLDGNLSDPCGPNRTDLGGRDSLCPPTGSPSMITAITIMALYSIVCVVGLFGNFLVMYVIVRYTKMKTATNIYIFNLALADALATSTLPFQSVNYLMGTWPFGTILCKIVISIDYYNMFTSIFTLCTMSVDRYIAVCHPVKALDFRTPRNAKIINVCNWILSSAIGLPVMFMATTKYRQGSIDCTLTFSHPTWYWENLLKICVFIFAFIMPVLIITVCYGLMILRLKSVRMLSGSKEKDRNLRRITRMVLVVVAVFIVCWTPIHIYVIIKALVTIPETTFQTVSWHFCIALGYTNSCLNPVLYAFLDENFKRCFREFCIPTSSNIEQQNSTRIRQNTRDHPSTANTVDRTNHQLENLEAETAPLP

On to `NCCc1cc(Cc2ccc(O)cc2)n(-c2ccc(Cl)cc2Cl)n1` [Example 58, 4-{[3-(2-Aminoethyl)-1-(2,4-dichlorophenyl)-1H-pyrazol-5-yl]methyl}phenol], for which the Ki in assay [1] was under 100 nM; in assay [2], 3000 to 5000 nM.
As to `COc1ccc(Cc2cc(CN)nn2Cc2ccccc2)cc1` [Example 13, [1-Benzyl-5-(4-methoxybenzyl)-1H-pyrazol-3-yl]methanamine], the Ki in assay [1] (setting [3]) is over 500 nM; in assay [2] (setting [4]) it was 500 to 3000 nM.
With `COc1ccc(Cc2cc(C(C)N)nn2-c2ccc(Cl)cc2Cl)cc1F` (stereo not drawn) [Example 30], the Ki was over 500 nM in assay [1] (setting [3]) and over 5000 nM in assay [2] (setting [4]).
As for `COc1ccc(-n2nc(CN)cc2Cc2ccc(O)cc2)c(Cl)c1` [Example 37, 4-{[3-(Aminomethyl)-1-(2-chloro-4-methoxyphenyl)-1H-pyrazol-5-yl]methyl}phenol], the values for the Ki in assay [1] and in assay [2] were under 100 nM and 500 to 3000 nM, respectively.
In the same order, the values of `CC(N)Cc1cc(Cc2ccc(O)cc2)n(-c2ccc(Cl)cc2Cl)n1` (stereo not drawn) [Example 68, 4-{[3-(2-Aminopropyl)-1-(2,4-dichlorophenyl)-1H-pyrazol-5-yl]methyl}phenol] are under 100 nM and over 5000 nM.
In the case of `COc1ccc(-n2nc(CN)cc2Cc2ccccc2)cc1` [Example 10, [5-Benzyl-1-(4-methoxyphenyl)-1H-pyrazol-3-yl]methanamine], the results for the Ki in assay [1] (setting [3]) and in assay [2] (setting [4]) were over 500 nM and 500 to 3000 nM, respectively.
Take `CC(N)c1cc(Cc2ccc(O)c(F)c2)n(-c2ccc(Cl)cc2Cl)n1` (stereo not drawn) [Example 52, 4-{[3-(1-Aminoethyl)-1-(2,4-dichlorophenyl)-1H-pyrazol-5-yl]methyl}-2-fluorophenol]: the results for the Ki in assay [1] and in assay [2] were under 100 nM and under 500 nM, respectively.
For `NCc1cc(Cc2ccc(O)cc2)n(Cc2ccc(Cl)cc2)n1` [Example 45, 4-{[3-(Aminomethyl)-1-(4-chlorobenzyl)-1H-pyrazol-5-yl]methyl}phenol], the Ki in assay [1] (setting [3]) was over 500 nM; in assay [2] (setting [4]) it was 500 to 3000 nM.
`CCOc1ccc(-n2nc(CN)cc2Cc2ccc(O)cc2)c(Cl)c1` [Example 7, 4-{[3-(Aminomethyl)-1-(2-chloro-4-ethoxyphenyl)-1H-pyrazol-5-yl]methyl}phenol]: the Ki is under 100 nM in assay [1] and 500 to 3000 nM in assay [2].
For the molecule `CCC(N)c1cc(Cc2ccc(OC)cc2)n(-c2ccc(Cl)cc2Cl)n1` (stereo not drawn) [Example 32, 1-[1-(2,4-Dichlorophenyl)-5-(4-methoxybenzyl)-1H-pyrazol-3-yl]propan-1-amine], the Ki in assay [1] (setting [3]) is over 500 nM; in assay [2] (setting [4]), over 5000 nM.
In the same order, the values of `COc1cc(Cl)ccc1-n1nc(C(C)N)cc1Cc1ccc(O)cc1` (stereo not drawn) [Example 29, 4-{[3-(1-Aminoethyl)-1-(4-chloro-2-methoxyphenyl)-1H-pyrazol-5-yl]methyl}phenol] are over 500 nM and over 5000 nM.
`CC(N)c1cc(Cc2ccc(O)c(F)c2)n(-c2ccc(Cl)cc2Cl)n1` (stereo in doubt) [Example 64, (R)-4-{[3-(1-Aminoethyl)-1-(2,4-dichlorophenyl)-1H-pyrazol-5-yl]methyl}-2-fluorophenol]: the figures for the Ki in assay [1] and in assay [2] were over 500 nM and over 5000 nM, respectively.
For `COc1ccc(Cl)c(-n2nc(C(C)N)cc2Cc2ccc(O)cc2)c1` (stereo not drawn) [Example 28, 4-{[3-(1-Aminoethyl)-1-(2-chloro-5-methoxyphenyl)-1H-pyrazol-5-yl]methyl}phenol], the figures for the Ki in assay [1] (setting [3]) and in assay [2] (setting [4]) were over 500 nM and over 5000 nM, respectively.
`CCCC(N)c1cc(Cc2ccc(OC)c(F)c2)n(-c2ccc(Cl)cc2Cl)n1` (stereo not drawn) [Example 31, 1-[1-(2,4-Dichlorophenyl)-5-(3-fluoro-4-methoxybenzyl)-1H-pyrazol-3-yl]butan-1-amine]: the Ki in assay [1] (setting [3]) was over 500 nM; in assay [2] (setting [4]), over 5000 nM.
For `NCc1cc(Cc2ccc(O)cc2)n(-c2ccc(F)cc2Cl)n1` [Example 42, 4-{[3-(Aminomethyl)-1-(2-chloro-4-fluorophenyl)-1H-pyrazol-5-yl]methyl}phenol], the figures for the Ki in assay [1] and in assay [2] were 100 to 500 nM and 500 to 3000 nM, respectively.
With `CCNCc1cc(Cc2ccc(OC)cc2)n(CC(C)C)n1` [Example 23, N-{[1-Isobutyl-5-(4-methoxybenzyl)-1H-pyrazol-3-yl]methyl}ethanamine], the Ki in assay [1] (setting [3]) was over 500 nM; in assay [2] (setting [4]), 500 to 3000 nM.
`CC(CN)c1cc(Cc2ccc(O)cc2)n(-c2ccc(Cl)cc2Cl)n1` (stereo not drawn) [Example 59, 4-{[3-(1-Aminopropan-2-yl)-1-(2,4-dichlorophenyl)-1H-pyrazol-5-yl]methyl}phenol]: the Ki in assay [1] was under 100 nM; in assay [2] it was over 5000 nM.
In the same order, the values of `C[C@@H](N)c1cc(Cc2ccc(O)cc2)n(-c2ccc(Cl)cc2Cl)n1` [Example 62, (R)-4-{[3-(1-Aminoethyl)-1-(2,4-dichlorophenyl)-1H-pyrazol-5-yl]methyl}phenol] are under 100 nM and 500 to 3000 nM.
Taken in the same sequence, the figures for `NCc1cc(Cc2cccc(O)c2)n(-c2ccc(Cl)cc2Cl)n1` [Example 34, 3-{[3-(Aminomethyl)-1-(2,4-dichlorophenyl)-1H-pyrazol-5-yl]methyl}phenol] were 100 to 500 nM and 500 to 3000 nM.
With `NCc1cc(Cc2ccc(O)cc2)n(-c2ccc(Cl)cc2)n1` [Example 40, 4-{[3-(Aminomethyl)-1-(4-chlorophenyl)-1H-pyrazol-5-yl]methyl}phenol], the Ki is over 500 nM in assay [1] (setting [3]) and 3000 to 5000 nM in assay [2] (setting [4]).
For `COc1cccc(Cc2cc(CN)nn2-c2ccc(Cl)cc2Cl)c1` [Example 8, [1-(2,4-Dichlorophenyl)-5-(3-methoxybenzyl)-1H-pyrazol-3-yl]methanamine], the Ki was over 500 nM in assay [1] (setting [3]) and 500 to 3000 nM in assay [2] (setting [4]).
In the same order, the values of `CCOc1ccc(Cc2cc(C(C)N)nn2-c2ccc(Cl)cc2Cl)cc1` (stereo not drawn) [Example 25, 1-[1-(2,4-Dichlorophenyl)-5-(4-ethoxybenzyl)-1H-pyrazol-3-yl]ethanamine] are over 500 nM and 500 to 3000 nM.
Regarding `NCc1cc(Cc2ccc(O)cc2)n(Cc2ccccc2)n1` [Example 46, 4-{[3-(Aminomethyl)-1-benzyl-1H-pyrazol-5-yl]methyl}phenol], the Ki in assay [1] (setting [3]) was over 500 nM; in assay [2] (setting [4]) it was 3000 to 5000 nM.
For the molecule `CC(C)Cn1nc(CN)cc1Cc1ccc(O)cc1` [Example 44, 4-{[3-(Aminomethyl)-1-isobutyl-1H-pyrazol-5-yl]methyl}phenol], the Ki is over 500 nM in assay [1] and under 500 nM in assay [2].
For the molecule `NC(=O)CC(N)c1cc(Cc2ccc(O)cc2)n(-c2ccc(Cl)cc2Cl)n1` (stereo not drawn) [Example 77, 3-Amino-3-[1-(2,4-dichlorophenyl)-5-(4-hydroxybenzyl)-1H-pyrazol-3-yl]propanamide], the Ki in assay [1] is under 100 nM; in assay [2] it was over 5000 nM.
In the same order, the values of `CC(N)c1cc(Cc2ccc(O)cc2)n(-c2ccc(Cl)cc2Cl)n1` (stereo not drawn) [Example 51, 4-{[3-(1-Aminoethyl)-1-(2,4-dichlorophenyl)-1H-pyrazol-5-yl]methyl}phenol] are under 100 nM and under 500 nM.
In the same order, the values of `CC(C)(N)c1cc(Cc2ccc(O)cc2)n(-c2ccc(Cl)cc2Cl)n1` [Example 57, 4-{[3-(2-Aminopropan-2-yl)-1-(2,4-dichlorophenyl)-1H-pyrazol-5-yl]methyl}phenol] are under 100 nM and 3000 to 5000 nM.
Regarding `CCCC(N)c1cc(Cc2ccc(O)c(F)c2)n(-c2ccc(Cl)cc2Cl)n1` (stereo not drawn) [Example 53, 4-{[3-(1-Aminobutyl)-1-(2,4-dichlorophenyl)-1H-pyrazol-5-yl]methyl}-2-fluorophenol], the Ki is under 100 nM in assay [1] and under 500 nM in assay [2].
Take `COc1ccc(-n2nc(C(C)N)cc2Cc2ccc(O)cc2)c(Cl)c1` (stereo not drawn) [Example 27, 4-{[3-(1-Aminoethyl)-1-(2-chloro-4-methoxyphenyl)-1H-pyrazol-5-yl]methyl}phenol]: the Ki is under 100 nM in assay [1] and under 500 nM in assay [2].
For the molecule `COc1ccc(Cc2cc(CN)nn2-c2ccccc2)cc1` [Example 19, [5-(4-Methoxybenzyl)-1-phenyl-1H-pyrazol-3-yl]methanamine], the Ki in assay [1] (setting [3]) is over 500 nM; in assay [2] (setting [4]), 500 to 3000 nM.
For the molecule `NCc1cc(Cc2ccc(O)cc2)n(-c2ccc(O)cc2Cl)n1` [Example 41, 4-[3-(Aminomethyl)-5-(4-hydroxybenzyl)-1H-pyrazol-1-yl]-3-chlorophenol], the Ki in assay [1] is under 100 nM; in assay [2], over 5000 nM.
For `CNCc1cc(Cc2ccc(OC)cc2)n(-c2ccc(Cl)cc2Cl)n1` [Example 22, 1-[1-{2,4-Dichlorophenyl)-5-(4-methoxybenzyl)-1H-pyrazol-3-yl]-N-methylmethanamine], the Ki in assay [1] (setting [3]) was over 500 nM; in assay [2] (setting [4]) it was 3000 to 5000 nM.
In the case of `COc1ccc(C(C)(C)c2cc(C(C)N)nn2-c2ccc(Cl)cc2Cl)cc1` (stereo not drawn) [Example 33, 1-[1-(2,4-Dichlorophenyl)-5-(2-(4-methoxyphenyl)propan-2-yl)-1H-pyrazol-3-yl]ethanamine], the Ki is over 500 nM in assay [1] (setting [3]) and over 5000 nM in assay [2] (setting [4]).
